Measurements from patent US20020193424A1, “Human cancerous cell anti-proliferation and survival inhibition agent” (priority 2000, published 2002).

What was measured:
[1] = tested on: Human prostate carcinoma DU145 cells; assay: FBS-stimulated cell growth of DU145 cells (total cell number, Coulter Counter); type: cell-based; conditions: 10% FBS, 50, 100 and 200 micromolars, counted at 48 and 72 hours, compared with control and silymarin
Protocol: (§1) 1. Cells and Culture Conditions. Human prostate carcinoma DU145 cells were obtained from American Type Culture Collection (Bethesda, Md.), and cultured in RPMI 1640 containing 10% fetal bovine serum (FBS) and 1% penicillin-streptomycin under standard culture conditions. Alternatively, DU145 cells were cultured in 10% charcoal/dextran stripped FBS (cFBS) and 1% penicillin-streptomycin in the presence or absence of 1 nM DHT.
(§2) Silymarin and Silibinin derivatives were dissolved in ethanol for all the treatments. […] The dose and time of silibinin derivatives treatment are depicted in the associated drawings.
(§3) 2. Results. Referring to FIGS. 3 through 6, for the studies assessing the effect of silibinin derivatives on FBS-stimulated cell growth and cell death, DU145 cells were plated at 1×10^5 cells per 60 mm plate in RPMI 1640 containing 10% FBS and treated with either ethanol alone or varying concentrations of silymarin (“Si”) and silibinin derivatives (“D1” and “D2”) (50, 100 and 200 micromolars). Cells were counted at 48 and 72 hours after treatment with the subject compounds.
(§4) At the counting intervals, cells were trypsinized and collected in counting vials. Each plate was washed thoroughly with isotonic buffer containing 0.1% formalin and washings were collected in the original vials with trypsinized cells. Each vial was counted using Coulter Counter to determine the total cell number.

[2] = tested on: Human prostate carcinoma DU145 cells; assay: Percent cell death of DU145 cells; type: cell-based; conditions: 10% FBS, 50, 100 and 200 micromolars, 48 and 72 hours, compared with control and silymarin
Protocol: as §1, §2, §3, §4

[3] = human, in vivo; cited from earlier work

Substance: 2,3-Dihydro-3-[3,4-dimethoxyphenyl]-2-[hydroxymethyl]-5,7-dimethoxy-4-oxobenzopyran-2-yl]benzodioxin [Derivative #1]
- inhibition of cell growth [1]: remarkably improved inhibition of cell growth over the control and silymarin
- percentage of cell death [2]: likewise improved percentage of cell death

Substance: Silymarin
- tolerability / adverse effects [3]: well tolerated and largely free of adverse effects
